This is an account of results in article PMC11078216, “Discovery of potent and selective activity-based probes (ABPs) for the deubiquitinating enzyme USP30” (RSC Chemical Biology, 2024).

The target in this assay is T1, CTSZ (Homo sapiens, UniProt Q9UBR2).
T1 construct: endogenous in cells; host or cells: HEK293T
The experiment in a line: ABPP chemical proteomics (LC-MS/MS) in HEK293T cells. It counts as cell-based. The method, then: To explore the selectivity of IMP-2587 and IMP-2586 across the whole proteome, we performed quantitative activity-based protein profiling (ABPP) in HEK293T cells following treatment with IMP-2587 or IMP-2586 (Fig. 3a). After ABP incubation, cells were lysed, and probe-labelled proteins were ligated to biotinylated capture reagents.[27] […] USP30 was outcompeted by corresponding parent inhibitors for each ABP (Fig. 5b and d and Tables S3 and S5, ESI ^†), confirming the high potency and rapid engagement of IMP-2587 and IMP-2586 in cells. […] DESI1 and DESI2 are small ubiquitin-related modifier (SUMO) proteases,[3,29–32] and IMP-2587 and IMP-2586 may offer a starting point for future development of DESI ABPs. […]
The cells were washed with PBS and lysed with lysis buffer (50 μL (1% (v/v) Triton X-100, 0.1% (w/v) sodium dodecyl sulfate (SDS), EDTA-free complete protease inhibitor cocktail (1×, Roche) in PBS on ice for 10 min. The lysates were scraped and transferred to corresponding Lo-Bind Eppendorfs. Each lysate was sonicated for 1 minute, and the samples centrifuges at 5,000 x g at 4 °C for 5 minutes to pellet insoluble cellular debris. The supernatant was collected, and protein concentration was determined using the DC Protein Assay (Bio-Rad) as per manufacturer’s instructions, and normalised to lowest concentrated sample (e.g. 1 mg/mL, using lysis buffer). […]

T1 sequence (Q9UBR2 62-303): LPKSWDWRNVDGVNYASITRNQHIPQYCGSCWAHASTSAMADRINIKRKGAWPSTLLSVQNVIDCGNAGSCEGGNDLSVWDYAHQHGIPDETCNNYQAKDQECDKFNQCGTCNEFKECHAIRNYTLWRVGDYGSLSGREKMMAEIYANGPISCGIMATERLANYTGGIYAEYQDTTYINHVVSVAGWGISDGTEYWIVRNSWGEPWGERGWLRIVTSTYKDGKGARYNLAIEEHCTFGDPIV

On to `C#Cc1cccc(-c2cc(NC(=O)CC3CCN(C#N)C3)on2)c1` (centres unmarked) [IMP-2587], for which the “Difference (log2 fold change of enrichment)” value (IMP-2587 labelling vs DMSO, 30 nM, 10 min, HEK293T (Table S2, Fig.5a)) came out at 2.29.

`N#CN1CC[C@H](CC(=O)Nc2cc(-c3cccc(Cl)c3)no2)C1` [compound 1, reference compound]: the “Difference (log2 fold change of enrichment)” value (compound 1 out-competition with IMP-2587 labelling, HEK293T (Table S3, Fig.5b)) was -2.01.
